Patent US10736883B2, “Triazole furan compounds as agonists of the APJ receptor” (AMGEN INC., priority 2016, dated 2020)
pEC50: −log10 of the molar value.

target: APJ receptor (Homo sapiens (Human), UniProt P35414); experiment: [35S]GTPγS binding assay on membranes from CHO cells stably expressing human APJ receptor; assay type: biochemical; conditions: membranes of CHO cells stably expressing human APJ receptor, means of several independent experiments, read-out: Activity hAPJ SPA EC50 IP
How it was run: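 EC50 values were obtained by non-linear regression of [35S]GTPγS (0.2 nM) binding after 90 min at RT, with nonspecific binding defined by 100 μM GTPγS. Reactions used human APJ–expressing CHO cell membranes on WGA PS beads in HEPES pH 7.5 buffer with 5 mM MgCl2, 200 mM NaCl, 3 μM GDP and 0.1% BSA.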

Chain of APJ receptor (P35414 whole entry): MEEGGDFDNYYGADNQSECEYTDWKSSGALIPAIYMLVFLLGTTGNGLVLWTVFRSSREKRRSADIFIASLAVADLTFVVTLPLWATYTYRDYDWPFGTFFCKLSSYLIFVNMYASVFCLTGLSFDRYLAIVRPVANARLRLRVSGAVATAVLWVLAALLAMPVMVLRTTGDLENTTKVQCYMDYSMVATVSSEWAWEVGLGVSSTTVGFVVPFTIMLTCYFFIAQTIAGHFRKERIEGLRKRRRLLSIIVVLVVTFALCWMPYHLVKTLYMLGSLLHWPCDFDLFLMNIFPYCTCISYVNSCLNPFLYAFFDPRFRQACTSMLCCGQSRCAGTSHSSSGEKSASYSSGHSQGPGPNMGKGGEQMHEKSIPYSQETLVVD

Point of comparison: `COc1cccc(OC)c1-n1c(NS(=O)(=O)[C@@H](C)Cc2ncc(F)c3[nH]cnc23)nnc1-c1ccco1` (single isomer, unassigned) [Example 5.0, (2S)—N-(4-(2,6-dimethoxyphenyl)-5-(2-furanyl)-4H-1,2,4-triazol-3-yl)-1-(7-fluoro-1H-imidazo[4,5-c]pyridin-4-yl)-2-propanesulfonamide or (2R)—N-(4-(2,6-dimethoxyphenyl)-5-(2-furanyl)-4H-1,2,4-triazol-3-yl)-1-(7-fluoro-1H-imidazo[4,5-c]pyridin-4-yl)-2-propanesulfonamide], pEC50 9.02. Against it:
- COc1cccc(OC)c1-n1c(NS(=O)(=O)[C@@H](C)[C@H](O)c2cn3ccccc3n2)nnc1-c1ccc(C)o1 (single isomer, unassigned) [Example 289.0, (1R,2S)—N-(4-(2,6-Dimethoxyphenyl)-5-(5-methyl-2-furanyl)-4H-1,2,4-triazol-3-yl)-1-hydroxy-1-imidazo[1,2-a]pyridin-2-yl-2-propanesulfonamide or (1S,2R)—N-(4-(2,6-dimethoxyphenyl)-5-(5-methyl-2-furanyl)-4H-1,2,4-triazol-3-yl)-1-hydroxy-1-imidazo[1,2-a]pyridin-2-yl-2-propanesulfonamide] — 0.71 log units lower, 8.31
- COc1cccc(OC)c1-n1c(NS(=O)(=O)[C@H](CCO)Cc2ncc(C)cn2)nnc1-c1ccc(C)o1 [Example 80.0] — within 0.2 log units, 8.96
- COc1cccc(OC)c1-n1c(NS(=O)(=O)[C@@H](C)[C@@H](C)c2ncc(F)cn2)nnc1-c1ccco1 (racemic) [Example 218.0, (2R,3R)—N-(4-(2,6-dimethoxyphenyl)-5-(2-furanyl)-4H-1,2,4-triazol-3-yl)-3-(5-fluoro-2-pyrimidinyl)-2-butanesulfonamide and (2S,3S)—N-(4-(2,6-dimethoxyphenyl)-5-(2-furanyl)-4H-1,2,4-triazol-3-yl)-3-(5-fluoro-2-pyrimidinyl)-2-butanesulfonamide] — 0.58 log units higher, 9.60
- COc1cccc(OC)c1-n1c(NS(=O)(=O)C[C@](C)(F)c2ncc(C#N)cn2)nnc1-c1ccc(C)o1 (single isomer, unassigned) [Example 245.0, (2R)-2-(5-Cyano-2-pyrimidinyl)-N-(4-(2,6-dimethoxyphenyl)-5-(5-methyl-2-furanyl)-4H-1,2,4-triazol-3-yl)-2-fluoro-1-propanesulfonamide or (2S)-2-(5-cyano-2-pyrimidinyl)-N-(4-(2,6-dimethoxyphenyl)-5-(5-methyl-2-furanyl)-4H-1,2,4-triazol-3-yl)-2-fluoro-1-propanesulfonamide] — the same, 9.02
- COC[C@H]1CCCC(=O)N1C[C@@H](C)S(=O)(=O)Nc1nnc(-c2ccc(C)o2)n1-c1c(OC)cccc1OC (single isomer, unassigned) [Example 185.0] — 1.54 log units lower, 7.48
- COc1cccc(OC)c1-n1c(NS(=O)(=O)[C@H](C)Cc2ccc(C#N)cn2)nnc1-c1ccco1 (single isomer, unassigned) [Example 30.0, (2R)-1-(5-cyano-2-pyridinyl)-N-(4-(2,6-dimethoxyphenyl)-5-(2-furanyl)-4H-1,2,4-triazol-3-yl)-2-propanesulfonamide or (2S)-1-(5-cyano-2-pyridinyl)-N-(4-(2,6-dimethoxyphenyl)-5-(2-furanyl)-4H-1,2,4-triazol-3-yl)-2-propanesulfonamide] — within 0.2 log units, 8.92
- COc1cccc(OC)c1-n1c(NS(=O)(=O)[C@@H](C)[C@@H](O)c2coc(C)n2)nnc1-c1ccc(C)o1 (racemic) [Example 300.0, (1R,2R)—N-(4-(2,6-Dimethoxyphenyl)-5-(5-methyl-2-furanyl)-4H-1,2,4-triazol-3-yl)-1-hydroxy-1-(2-methyl-1,3-oxazol-4-yl)-2-propanesulfonamide and (1S,2S)—N-(4-(2,6-dimethoxyphenyl)-5-(5-methyl-2-furanyl)-4H-1,2,4-triazol-3-yl)-1-hydroxy-1-(2-methyl-1,3-oxazol-4-yl)-2-propanesulfonamide] — 1.10 log units lower, 7.92
- COc1cccc(OC)c1-n1c(NS(=O)(=O)[C@H]2C[C@@H](O)CN(c3ncc(F)cn3)C2)nnc1-c1ccc(C)o1 (racemic) [Example 332.0] — 0.33 log units higher, 9.35
- COc1cccc(OC)c1-n1c(NS(=O)(=O)[C@H]2C[C@@H](O)CN(C(=O)N(C)C)C2)nnc1-c1ccc(C)o1 (single isomer, unassigned) [Example 337.0, (3S,5R)-3-(N-(4-(2,6-Dimethoxyphenyl)-5-(5-methylfuran-2-yl)-4H-1,2,4-triazol-3-yl)sulfamoyl)-5-hydroxy-N,N-dimethylpiperidine-1-carboxamide or (3R,5S)-3-(N-(4-(2,6-dimethoxyphenyl)-5-(5-methylfuran-2-yl)-4H-1,2,4-triazol-3-yl)sulfamoyl)-5-hydroxy-N,N-dimethylpiperidine-1-carboxamide] — within 0.2 log units, 8.89
- COc1cccc(OC)c1-n1c(NS(=O)(=O)[C@H]2CCCN(S(=O)(=O)C(C)C)C2)nnc1-c1ccco1 (single isomer, unassigned) [Example 339.0, (S)—N-(4-(2,6-Dimethoxyphenyl)-5-(furan-2-yl)-4H-1,2,4-triazol-3-yl)-1-(isopropylsulfonyl)piperidine-3-sulfonamide or (R)—N-(4-(2,6-dimethoxyphenyl)-5-(furan-2-yl)-4H-1,2,4-triazol-3-yl)-1-(isopropylsulfonyl)piperidine-3-sulfonamide] — 1.81 log units lower, 7.21
- COc1cccc(OC)c1-n1c(NS(=O)(=O)[C@H](C)Cc2ccc(Cl)cn2)nnc1-c1ccco1 (single isomer, unassigned) [Example 11.0, (2R)-1-(5-chloro-2-pyridinyl)-N-(4-(2,6-dimethoxyphenyl)-5-(2-furanyl)-4H-1,2,4-triazol-3-yl)-2-propanesulfonamide or (2S)-1-(5-chloro-2-pyridinyl)-N-(4-(2,6-dimethoxyphenyl)-5-(2-furanyl)-4H-1,2,4-triazol-3-yl)-2-propanesulfonamide] — 0.83 log units higher, 9.85
- COc1cccc(OC)c1-n1c(NS(=O)(=O)[C@H](C)Cc2ccc(C)nn2)nnc1-c1ccc(C)o1 (single isomer, unassigned) [Example 31.0, (2R)—N-(4-(2,6-dimethoxyphenyl)-5-(5-methyl-2-furanyl)-4H-1,2,4-triazol-3-yl)-1-(6-methyl-3-pyridazinyl)-2-propanesulfonamide or (2S)—N-(4-(2,6-dimethoxyphenyl)-5-(5-methyl-2-furanyl)-4H-1,2,4-triazol-3-yl)-1-(6-methyl-3-pyridazinyl)-2-propanesulfonamide] — 0.30 log units lower, 8.72
- CO[C@H](c1ncc(Cl)cn1)[C@H](C)S(=O)(=O)Nc1nnc(-c2ccc(C)o2)n1[C@@H]1CCCOC1 [Example 391.0, (1R,2S)-1-(5-chloropyrimidin-2-yl)-1-methoxy-N-(5-(5-methylfuran-2-yl)-4-((R)-tetrahydro-2H-pyran-3-yl)-4H-1,2,4-triazol-3-yl)propane-2-sulfonamide] — 0.94 log units lower, 8.08
- COc1cccc(OC)c1-n1c(NS(=O)(=O)[C@@H]2COCC[C@@H]2O)nnc1-c1ccc(C)o1 (single isomer, unassigned) [Example 405.0] — 1.83 log units lower, 7.19
- COc1cccc(OC)c1-n1c(NS(=O)(=O)c2cccc([C@@H](C)O)c2)nnc1-c1ccc(C)o1 (single isomer, unassigned) [Example 411.0, (R)-N-(4-(2,6-dimethoxyphenyl)-5-(5-methylfuran-2-yl)-4H-1,2,4-triazol-3-yl)-3-(1-hydroxyethyl)benzenesulfonamide or (S)-N-(4-(2,6-dimethoxyphenyl)-5-(5-methylfuran-2-yl)-4H-1,2,4-triazol-3-yl)-3-(1-hydroxyethyl)benzenesulfonamide] — 1.53 log units lower, 7.49
- COCC[C@@H](Cc1ncc(C)cn1)S(=O)(=O)Nc1nnc(-c2ccc(C)o2)n1-c1c(OC)cccc1OC (racemic) [Example 76.0, (2R)—N-(4-(2,6-dimethoxyphenyl)-5-(5-methyl-2-furanyl)-4H-1,2,4-triazol-3-yl)-4-methoxy-1-(5-methyl-2-pyrimidinyl)-2-butanesulfonamide and (2S)—N-(4-(2,6-dimethoxyphenyl)-5-(5-methyl-2-furanyl)-4H-1,2,4-triazol-3-yl)-4-methoxy-1-(5-methyl-2-pyrimidinyl)-2-butanesulfonamide] — 0.20 log units higher, 9.22
- C[C@@H](Cc1ncc(F)cn1)S(=O)(=O)Nc1nnc(-c2ccco2)n1-c1cccc2ccccc12 (mixture of isomers) [Example 314.0, (2R)-1-(5-Fluoro-2-pyrimidinyl)-N-(5-(2-furanyl)-4-(1-naphthalenyl)-4H-1,2,4-triazol-3-yl)-2-propanesulfonamide and (2S)-1-(5-fluoro-2-pyrimidinyl)-N-(5-(2-furanyl)-4-(1-naphthalenyl)-4H-1,2,4-triazol-3-yl)-2-propanesulfonamide] — 2.38 log units lower, 6.64
- COc1cccc(OC)c1-n1c(NS(=O)(=O)[C@@H]2COCC[C@@H]2O)nnc1-c1ccc(C)o1 (single isomer, unassigned) [Example 402.0] — 1.83 log units lower, 7.19
- COc1cccc(OC)c1-n1c(NS(=O)(=O)[C@H](C)[C@@H](O)c2nccn2C)nnc1-c1ccc(C)o1 (single isomer, unassigned) [Example 297.0, (1S,2R)—N-(4-(2,6-Dimethoxyphenyl)-5-(5-methyl-2-furanyl)-4H-1,2,4-triazol-3-yl)-1-hydroxy-1-(1-methyl-1H-imidazol-2-yl)-2-propanesulfonamide or (1R,2S)—N-(4-(2,6-dimethoxyphenyl)-5-(5-methyl-2-furanyl)-4H-1,2,4-triazol-3-yl)-1-hydroxy-1-(1-methyl-1H-imidazol-2-yl)-2-propanesulfonamide] — 0.96 log units lower, 8.06
- COc1cccc(OC)c1-n1c(NS(=O)(=O)[C@H](C)CN2C(=O)CCC[C@]2(C)C#N)nnc1-c1ccco1 (single isomer, unassigned) [Example 342.0] — 2.10 log units lower, 6.92
